According to publication PMC11855827, “High-Throughput Screening of Five Compound Libraries for Anthelmintic Activity and Toxicity Leads to the Discovery of Two Flavonoid Compounds” (International Journal of Molecular Sciences, 2025):
*1 amine or outer side, *2 acyl side, *3 side chain or, on linkers, in order; H or OH if unused. Where a SMILES comes first, the peptide text is derived from it. Bridges are numbered along the chain shown (N, C = ends). [ ]: non-standard residue; d: D form. The star is where a group is joined. hTyr(3S-OH,4S-OH,3'-OSO3H) = N[C@H](C(=O)O)[C@H](O)[C@@H](O)c1ccc(O)c(OS(=O)(=O)O)c1; Orn(4R-OH,5R-OH) = O=C([C@H](C[C@@H](O)[C@@H](O)N[*:3])N[*:1])[*:2]; Pro(3S-OH,4S-Me) = C[C@H]1CN[C@H](C(=O)O)[C@H]1O; X1 = CCCCCOc1ccc(-c2cc(-c3ccc(C(=O)*)cc3)no2)cc1; Gln(3R-OH) = NC(=O)C[C@@H](O)[C@H](N)C(=O)O; Hyp = O=C(O)[C@@H]1C[C@@H](O)CN1

Tested on: C. elegans
Conditions: Table S2, C. elegans SS assay, 110 μM, averages of 4 data points

| Compound | Percentage of motility inhibition 0 h | Percentage of motility inhibition 24 h |
| --- | --- | --- |
| OCC1=C[C@@H](O)[C@]2(O[C@@H]3O[C@H](CO)[C@@H](O)[C@H](O)[C@H]3O)C=CO[C@@H](O[C@@H]3O[C@H](CO)[C@@H](O)[C@H](O)[C@H]3O)[C@H]12 [Melittoside] | 0% | 4% |
| CC1CCC(C(C)C)C(O)C1 (stereo not drawn) [Menthol] | 3% | 17% |
| C[C@@H](O)[C@H]1C(=O)N2C(C(=O)O)=C(S[C@@H]3CN[C@H](C(=O)N(C)C)C3)[C@H](C)[C@H]12.O.O.O [Meropenem (trihydrate)] | 12% | 9% |
| COC[C@]12CN(C)[C@@H]3[C@@H]4[C@H](OC)[C@H]1[C@@]3([C@@H](OC)C[C@H]2O)[C@@H]1C[C@@]2(O)[C@H](OC(=O)c3ccccc3)[C@@H]1[C@]4(OC(C)=O)[C@@H](O)[C@@H]2OC [Mesaconitine] | 0% | 3% |
| Cc1c(N(C)CS(=O)(=O)[O-])c(=O)n(-c2ccccc2)n1C.[Na+] [Metamizole (sodium)] | 17% | 2% |
| C=C1c2cccc(O)c2C(=O)C2=C(O)[C@]3(O)C(=O)C(C(N)=O)=C(O)[C@@H](N(C)C)[C@@H]3[C@@H](O)[C@H]12.Cl [Methacycline (hydrochloride)] | 17% | 20% |
| COc1cccc(OC)c1C(=O)N[C@@H]1C(=O)N2[C@@H]1SC(C)(C)[C@@H]2C(=O)[O-].[Na+] [Methicillin (sodium salt)] | 16% | 1% |
| COC(=O)c1ccc(O)cn1 [Methyl 5‐hydroxypyridine‐2‐carboxylate] | 7% | 1% |
| CNc1ccccc1C(=O)OC [Methyl N‐methylanthranilate] | 30% | 4% |
| COC(=O)C1=CO[C@@H](O[C@@H]2O[C@H](CO)[C@@H](O)[C@H](O)[C@H]2O)[C@@H]2C(CO)=C[C@H](O)[C@H]12 [Methyl deacetylasperulosidate] | 16% | 30% |
| COC(=O)[C@]12CCC(C)(C)C[C@H]1C1=CC[C@@H]3[C@@]4(C)CCC(=O)C(C)(C)[C@@H]4CC[C@@]3(C)[C@]1(C)CC2 [Methyl oleanonate] | 4% | 1% |
| CO[C@]1(CC[C@@H](C)CO[C@@H]2O[C@H](CO)[C@@H](O)[C@H](O)[C@H]2O)O[C@H]2C[C@H]3[C@@H]4CC=C5C[C@@H](O[C@@H]6O[C@H](CO)[C@@H](O)[C@H](O[C@@H]7O[C@H](CO)[C@@H](O)[C@H](O)[C@H]7O)[C@H]6O[C@@H]6O[C@@H](C)[C@H](O)[C@@H](O)[C@H]6O)CC[C@]5(C)[C@H]4CC[C@]3(C)[C@H]2[C@@H]1C [Methyl protogracillin] | 0% | 15% |
| COc1ccc2c(c1OC)O[C@H]1c3ccc(O[C@@H]4O[C@H](CO)[C@@H](O)[C@H](O)[C@H]4O)cc3OC[C@@H]21 [Methylnissolin‐3‐O‐glucoside] | 8% | 7% |
| Cc1c(O)c(C)c2c(c1O)C(=O)[C@H](Cc1ccc3c(c1)OCO3)CO2 [Methylophiopogonanone A] | 21% | 0% |
| COc1ccc(C[C@@H]2COc3c(C)c(O)c(C)c(O)c3C2=O)cc1 [Methylophiopogonanone B] | 0% | 21% |
| Cc1c(O)c(C)c2occ(Cc3ccc4c(c3)OCO4)c(=O)c2c1O [Methylophiopogonone A] | 0% | 0% |
| CC1(C)S[C@@H]2[C@H](NC(=O)[C@H](NC(=O)N3CCN(S(C)(=O)=O)C3=O)c3ccccc3)C(=O)N2[C@H]1C(=O)[O-].[Na+] [Mezlocillin (sodium)] | 0% | 4% |

| Compound | Percentage of motility inhibition 0 h | Percentage of motility inhibition 24 h |
| --- | --- | --- |
| CN1CCN2c3ccccc3Cc3ccccc3C2C1.Cl (stereo not drawn) [Mianserin (hydrochloride)] | 0% | 0% |
| CCCCCOc1ccc(-c2cc(-c3ccc(C(=O)N[C@H]4C[C@@H](O)[C@@H](O)NC(=O)[C@@H]5[C@@H](O)[C@@H](C)CN5C(=O)[C@H]([C@H](O)CC(N)=O)NC(=O)[C@H]([C@H](O)[C@@H](O)c5ccc(O)c(OS(=O)(=O)[O-])c5)NC(=O)[C@@H]5C[C@@H](O)CN5C(=O)[C@H]([C@@H](C)O)NC4=O)cc3)no2)cc1.[Na+] [Micafungin (sodium)] (X1-[Orn(4R-OH,5R-OH)]T[Hyp][hTyr(3S-OH,4S-OH,3'-OSO3H)][Gln(3R-OH)][Pro(3S-OH,4S-Me)]; lactam 1-C) | 3% | 0% |
| Clc1ccc(COC(Cn2ccnc2)c2ccc(Cl)cc2Cl)c(Cl)c1.O=[N+]([O-])O (stereo not drawn) [Miconazole (nitrate)] | 26% | 15% |
| COC(=O)C1=CO[C@@H](C)[C@H]2CN3CC[C@]4(C(=O)Nc5ccccc54)[C@@H]3C[C@H]12 [Mitraphylline] | 0% | 21% |
| C[C@H](CC[C@@H](O[C@@H]1O[C@H](CO)[C@@H](O)[C@H](O)[C@H]1O[C@@H]1O[C@H](CO)[C@@H](O)[C@H](O)[C@H]1O)C(C)(C)O)[C@H]1CC[C@@]2(C)[C@@H]3CC=C4[C@@H](CC[C@H](O[C@@H]5O[C@H](CO)[C@@H](O)[C@H](O)[C@H]5O)C4(C)C)[C@]3(C)[C@H](O)C[C@]12C [Mogroside III-E] | 25% | 17% |
| C[C@H](CC[C@@H](O[C@@H]1O[C@H](CO[C@@H]2O[C@H](CO)[C@@H](O)[C@H](O)[C@H]2O)[C@@H](O)[C@H](O)[C@H]1O)C(C)(C)O)[C@H]1CC[C@@]2(C)[C@@H]3CC=C4[C@@H](CC[C@H](O[C@@H]5O[C@H](CO)[C@@H](O)[C@H](O)[C@H]5O)C4(C)C)[C@]3(C)[C@H](O)C[C@]12C [Mogroside III] | 7% | 3% |
| C[C@H](CC[C@@H](O[C@@H]1O[C@H](CO)[C@@H](O)[C@H](O)[C@H]1O)C(C)(C)O)[C@H]1CC[C@@]2(C)[C@@H]3CC=C4[C@@H](CC[C@H](O[C@@H]5O[C@H](CO)[C@@H](O)[C@H](O)[C@H]5O)C4(C)C)[C@]3(C)[C@H](O)C[C@]12C [Mogroside IIe] | 0% | 7% |
| C[C@H](CC[C@@H](O[C@@H]1O[C@H](CO[C@@H]2O[C@H](CO)[C@@H](O)[C@H](O)[C@H]2O)[C@@H](O)[C@H](O)[C@H]1O)C(C)(C)O)[C@H]1CC[C@@]2(C)[C@@H]3CC=C4[C@@H](CC[C@H](O[C@@H]5O[C@H](CO[C@@H]6O[C@H](CO)[C@@H](O)[C@H](O)[C@H]6O)[C@@H](O)[C@H](O)[C@H]5O)C4(C)C)[C@]3(C)[C@H](O)C[C@]12C [Mogroside IV-A] | 0% | 0% |
| C[C@H](CC[C@@H](O[C@@H]1O[C@H](CO)[C@@H](O)[C@H](O)[C@H]1O[C@@H]1O[C@H](CO)[C@@H](O)[C@H](O)[C@H]1O)C(C)(C)O)[C@H]1CC[C@@]2(C)[C@H]3CC=C4[C@@H](CC[C@H](O[C@@H]5O[C@H](CO[C@@H]6O[C@H](CO)[C@@H](O)[C@H](O)[C@H]6O)[C@@H](O)[C@H](O)[C@H]5O)C4(C)C)[C@]3(C)[C@H](O)C[C@]12C [Mogroside IV-E] | 4% | 6% |
| C[C@H](CC[C@@H](O[C@@H]1O[C@H](CO)[C@@H](O)[C@H](O)[C@H]1O[C@@H]1O[C@H](CO)[C@@H](O)[C@H](O)[C@H]1O)C(C)(C)O)[C@H]1CC[C@@]2(C)[C@H]3CC=C4[C@@H](CC[C@H](O[C@@H]5O[C@H](CO[C@@H]6O[C@H](CO)[C@@H](O)[C@H](O)[C@H]6O)[C@@H](O)[C@H](O)[C@H]5O)C4(C)C)[C@]3(C)[C@H](O)C[C@]12C [Mogroside IV] | 0% | 43% |
| C[C@H](CC[C@@H](O[C@@H]1O[C@H](CO[C@@H]2O[C@H](CO)[C@@H](O)[C@H](O)[C@H]2O)[C@@H](O)[C@H](O)[C@H]1O[C@@H]1O[C@H](CO)[C@@H](O)[C@H](O)[C@H]1O)C(C)(C)O)[C@H]1CC[C@@]2(C)[C@@H]3CC=C4[C@@H](CC[C@H](O[C@@H]5O[C@H](CO[C@@H]6O[C@H](CO)[C@@H](O)[C@H](O)[C@H]6O)[C@@H](O)[C@H](O)[C@H]5O)C4(C)C)[C@]3(C)[C@H](O)C[C@]12C [Mogroside V] | 19% | 12% |
| CC1(C)CC[C@]2(C(=O)O[C@@H]3O[C@H](CO)[C@@H](O)[C@H](O)[C@H]3O)CC[C@]3(C)C(=CC[C@@H]4[C@@]5(C)CC[C@H](O[C@@H]6O[C@H](C(=O)O)[C@@H](O)[C@H](O[C@@H]7OC[C@@H](O)[C@H](O)[C@H]7O)[C@H]6O)C(C)(C)[C@@H]5CC[C@]43C)[C@@H]2C1 [Momordin IIc] | 0% | 0% |
| CC1(C)CC[C@]2(C(=O)O)CC[C@]3(C)C(=CC[C@@H]4[C@@]5(C)CC[C@H](O[C@@H]6O[C@H](C(=O)O)[C@@H](O)[C@H](O[C@@H]7OC[C@@H](O)[C@H](O)[C@H]7O)[C@H]6O)C(C)(C)[C@@H]5CC[C@]43C)[C@@H]2C1 [Momordin Ic] | 12% | 4% |
| O=C(O)C1=CO[C@@H](O[C@@H]2O[C@H](CO)[C@@H](O)[C@H](O)[C@H]2O)[C@H]2[C@@H]1C=C[C@]2(O)CO [Monotropein] | 0% | 0% |
| Cl.N=C(N=C(N)N)N1CCOCC1 [Moroxydine (hydrochloride)] | 13% | 8% |
| CO[C@@]1(NC(=O)C(C(=O)[O-])c2ccc(O)cc2)C(=O)N2C(C(=O)[O-])=C(CSc3nnnn3C)CO[C@@H]21.[Na+].[Na+] (stereo partly drawn) [Moxalactam (sodium salt)] | 22% | 8% |
